# Source: ChEMBL document CHEMBL5046264, “Cyclotides Chemosensitize Glioblastoma Cells to Temozolomide” (J Nat Prod, 2022)
# Where “and” joins values, the source holds several entries; their conditions need not be identical. Identical values can stand only once. Calls of active or inactive are those of the source. The calls are words filed in the database; no cut-off is given here. Positions of bridges follow the written chain, without caps; N, C: chain ends. Residues, ends and D or L forms follow the SMILES beside them.
# Columns and labels:
# [1] = test system: SH-SY5Y; assay: Cytotoxicity against human SH-SY5Y cells using best fit nonlinear regression analysis; format: functional, cell-based
# [2] = test system: SH-SY5Y; assay: Cytotoxicity against human SH-SY5Y cells assessed as cell viability at 100 uM incubated upto 72 hrs by MTT assay; format: functional; conditions: time hrs <=72, read-out: Activity
# [3] = test system: SH-SY5Y; assay: Cytotoxicity against human SH-SY5Y cells assessed as cell viability at 2000 uM incubated upto 72 hrs by MTT assay; format: functional; conditions: time hrs <=72, read-out: Activity
# [4] = test system: SH-SY5Y; assay: Cytotoxicity against human SH-SY5Y cells assessed as cell viability at 500 uM incubated upto 72 hrs by MTT assay; format: functional; conditions: time hrs <=72, read-out: Activity
# [5] = test system: U-87 MG; assay: Cytotoxicity against human U-87 MG cells assessed as cell viability at 100 uM incubated upto 72 hrs by MTT assay; format: functional, U-87MG ATCC; conditions: time hrs <=72, read-out: Activity
# [6] = test system: U-87 MG; assay: Cytotoxicity against human U-87 MG cells assessed as cell viability at 2000 uM incubated upto 72 hrs by MTT assay; format: functional, U-87MG ATCC; conditions: time hrs <=72, read-out: Activity
# [7] = test system: U-87 MG; assay: Cytotoxicity against human U-87 MG cells assessed as cell viability at 10000 uM incubated upto 72 hrs by MTT assay; format: functional, U-87MG ATCC; conditions: time hrs <=72, read-out: Activity
# [8] = test system: SH-SY5Y; assay: Cytotoxicity against human SH-SY5Y cells assessed as cell viability using raw interpretation method; format: functional, cell-based
# [9] = test system: U-87 MG; assay: Cytotoxicity against human U-87 MG cells assessed as cell viability using raw interpretation method; format: functional, cell-based, U-87MG ATCC
# [10] = test system: U-87 MG; assay: Cytotoxicity against human U-87 MG cells using best fit nonlinear regression analysis; format: functional, cell-based, U-87MG ATCC
# [11] = test system: U-87 MG; assay: Cytotoxicity against human U-87 MG cells assessed as cell death at 352 uM incubated upto 72 hrs by MTT assay; format: functional, U-87MG ATCC; conditions: time hrs <=72
# [12] = test system: U-87 MG; assay: Induction of morphological changes in human U-87 MG cells assessed as appearance of shrunken cell bodies at 1408 uM measured after 72 hrs by phase contrast microscopy; format: functional, U-87MG ATCC
# [13] = test system: U-87 MG; assay: Induction of morphological changes in human U-87 MG cells assessed as membrane blebbing at 1408 uM measured after 72 hrs by phase contrast microscopy; format: functional, U-87MG ATCC
# [14] = test system: U-87 MG; assay: Induction of morphological changes in human U-87 MG cells assessed as appearance of undergoing apoptosis at 1408 uM measured after 72 hrs by phase contrast microscopy; format: functional, U-87MG ATCC
# [15] = test system: U-87 MG; assay: Cytotoxicity against human U-87 MG cells assessed as TMZ-induced cell death at 4.4 uM cotreated with 352 uM of TMZ measured after 72 hrs by phase contrast microscopy; format: functional, cell-based; conditions: U-87MG ATCC
# [16] = test system: U-251; assay: Cytotoxicity against human U-251 cells by sulforhodamine B assay; format: functional, cell-based
# [17] = test system: U-87 MG; assay: Cytotoxicity against human U-87 MG cells by sulforhodamine B assay; format: functional, cell-based, U-87MG ATCC
# [18] = test system: SH-SY5Y; assay: Cytotoxicity against human SH-SY5Y cells assessed as cell viability at 5 uM upto 72 hrs by MTT assay; format: functional; conditions: time hrs <=72, read-out: Activity
# [19] = test system: U-87 MG; assay: Cytotoxicity against human U-87 MG cells assessed as cell viability at 5 uM upto 72 hrs by MTT assay; format: functional, U-87MG ATCC; conditions: time hrs <=72, read-out: Activity
# [20] = test system: SH-SY5Y; assay: Cytotoxicity against human SH-SY5Y cells assessed as TMZ-induced cell death at 0.27 to 2.15 uM cotreated with 216.2 uM of TMZ incubated upto 72 hrs by MTT assay; format: functional; conditions: dose 0.27-2.15 µM, time hrs <=72
# [21] = test system: SH-SY5Y; assay: Cytotoxicity against human SH-SY5Y cells assessed as TMZ-induced cell death at 2.15 uM cotreated with 108.1 uM of TMZ incubated upto 72 hrs by MTT assay; format: functional; conditions: time hrs <=72
# [22] = test system: SH-SY5Y; assay: Cytotoxicity against human SH-SY5Y cells assessed as TMZ-induced cell death at 2.15 uM cotreated with 54.05 uM of TMZ incubated upto 72 hrs by MTT assay; format: functional; conditions: time hrs <=72
# [23] = test system: U-87 MG; assay: Cytotoxicity against human U-87 MG cells assessed as TMZ-induced cell death at 4.5 uM cotreated with 352 to 1408 uM of TMZ incubated upto 72 hrs by MTT assay; format: functional, cell-based; conditions: U-87MG ATCC, time hrs <=72
# [24] = test system: U-87 MG; assay: Induction of morphological changes in human U-87 MG cells assessed as appearance of shrunken cell bodies at 4.4 uM measured after 72 hrs by phase contrast microscopy; format: functional, cell-based; conditions: U-87MG ATCC
# [25] = test system: U-87 MG; assay: Induction of morphological changes in human U-87 MG cells assessed as membrane blebbing at 4.4 uM measured after 72 hrs by phase contrast microscopy; format: functional, cell-based; conditions: U-87MG ATCC
# [26] = test system: U-87 MG; assay: Induction of morphological changes in human U-87 MG cells assessed as cell death at 4.4 uM cotreated with 352 uM of TMZ measured after 72 hrs by phase contrast microscopy; format: functional, cell-based; conditions: U-87MG ATCC
# [27] = test system: U-87 MG; assay: Induction of morphological changes in human U-87 MG cells assessed as swollen nuclei at 4.4 uM cotreated with 352 uM of TMZ measured after 72 hrs by phase contrast microscopy; format: functional, cell-based; conditions: U-87MG ATCC
# [28] = test system: U-87 MG; assay: Induction of morphological changes in human U-87 MG cells assessed as membrane blebbing at 4.4 uM cotreated with 352 uM of TMZ measured after 72 hrs by phase contrast microscopy; format: functional, cell-based; conditions: U-87MG ATCC
# [29] = test system: U-87 MG; assay: Effect on cell morphology in human U-87 MG cells at 4.4 uM cotreated with 352 uM of TMZ measured after 72 hrs by phase contrast microscopy; format: functional, cell-based; conditions: U-87MG ATCC
# [30] = test system: SH-SY5Y; assay: Cytotoxicity against human SH-SY5Y cells assessed as TMZ-induced cell death at 1.4 uM cotreated with 176 uM of TMZ incubated upto 72 hrs by MTT assay; format: functional, cell-based; conditions: time hrs <=72
# [31] = test system: U-87 MG; assay: Cytotoxicity against human U-87 MG cells assessed as TMZ-induced cell death at 0.35 to 2.8 uM cotreated with 176 to 704 uM of TMZ incubated upto 72 hrs by MTT assay; format: functional, cell-based; conditions: U-87MG ATCC, dose 0.35-2.8 µM, time hrs <=72
# [32] = test system: U-87 MG; assay: Cytotoxicity against human U-87 MG cells assessed as TMZ-induced cell death at 4.2 uM cotreated with 1408 uM of TMZ incubated upto 72 hrs by MTT assay; format: functional, cell-based; conditions: U-87MG ATCC, time hrs <=72
# [33] = test system: U-87 MG; assay: Induction of morphological changes in human U-87 MG cells assessed as cell death at 4.2 uM cotreated with 1408 uM of TMZ measured after 72 hrs by phase contrast microscopy; format: functional, U-87MG ATCC
# [34] = test system: U-87 MG; assay: Effect on cell morphology in human U-87 MG cells at 4.2 uM cotreated with 1408 uM of TMZ measured after 72 hrs by phase contrast microscopy; format: functional, cell-based; conditions: U-87MG ATCC
# [35] = test system: SH-SY5Y; assay: Cytotoxicity against human SH-SY5Y cells assessed as cell viability at 10 uM upto 72 hrs by MTT assay; format: functional; conditions: time hrs <=72, read-out: Activity
# [36] = test system: U-87 MG; assay: Cytotoxicity against human U-87 MG cells assessed as cell viability at 10 uM upto 72 hrs by MTT assay; format: functional, U-87MG ATCC; conditions: time hrs <=72, read-out: Activity
Compound,IC50 [1] [µM],IC50 [8] [µM],IC50 [9] [µM],IC50 [10] [µM],Activity [12] [%],Activity [13] [%],Activity [14] [%],IC50 [16],IC50 [17] [µM],viability at 5 µM [18] [%],viability at 5 µM [19] [%],also measured
Cn1nnc2c(C(N)=O)ncn2c1=O [TEMOZOLOMIDE],393,513,3190,2900,40,40,40,,,,,viability at 100 µM [2]: 96.6%; viability at 2000 µM [3]: 15.5%; viability at 500 µM [4]: 41.5%; viability at 100 µM [5]: 85.2%; viability at 2000 µM [6]: 57.3%; viability at 10000 µM [7]: 32.4%; Activity [11]: 10%
"CC[C@H](C)[C@@H]1NC(=O)[C@H](C)NC(=O)[C@H](CO)NC(=O)[C@H](CO)NC(=O)[C@H]([C@@H](C)CC)NC(=O)[C@@H]2CSSC[C@@H]3NC(=O)[C@H](C(C)C)NC(=O)[C@H](CCCCN)NC(=O)[C@H](CO)NC(=O)[C@H](CCCCN)NC(=O)[C@@H]4CSSC[C@H](NC(=O)[C@H](CO)NC(=O)[C@H](CCC(=O)O)NC(=O)CNC(=O)[C@H](CSSC[C@H](NC(=O)CNC1=O)C(=O)N[C@@H](CO)C(=O)N4)NC(=O)[C@@H]1CCCN1C(=O)[C@H]([C@@H](C)CC)NC(=O)CNC(=O)[C@H](CC(N)=O)NC(=O)[C@H](CCCNC(=N)N)NC(=O)[C@H](Cc1ccc(O)cc1)NC3=O)C(=O)N[C@@H](C(C)C)C(=O)N[C@@H](Cc1c[nH]c3ccccc13)C(=O)N[C@@H]([C@@H](C)CC)C(=O)N1CCC[C@H]1C(=O)N2 (cyclo(AIGCSCKSKVCYRNGIPCGESCVWIPCISS); disulfide 4-18, 6-22, 11-27)",2.15,3.07,5.66,4.5,,,,17.1 µg/mL and 790 nM,0.45,11.5,54.7,Activity [15]: inactive; Activity [20]: 40%; Activity [21]: 30%; Activity [22]: <20%; Activity [23]: Active; Activity [24]: Active; Activity [25]: Active; Activity [26]: Active; Activity [27]: Active; Activity [28]: Active; Activity [29]: Active
CC(C)C[C@@H]1NC(=O)CNC(=O)[C@H](CC(N)=O)NC(=O)[C@H](CCCNC(=N)N)NC(=O)[C@H](CO)NC(=O)[C@@H]2CSSC[C@@H]3NC(=O)[C@H]([C@@H](C)O)NC(=O)CNC(=O)CNC(=O)[C@H](C(C)C)NC(=O)[C@@H]4CSSC[C@H](NC(=O)[C@H]([C@@H](C)O)NC(=O)[C@H](CSSC[C@H](NC(=O)[C@H](C(C)C)NC(=O)[C@@H]5CCCN5C1=O)C(=O)NCC(=O)N[C@@H](CCC(=O)O)C(=O)N[C@@H]([C@@H](C)O)C(=O)N4)NC(=O)CNC(=O)[C@@H]1CCCN1C(=O)[C@H]([C@@H](C)O)NC(=O)[C@H](CC(N)=O)NC3=O)C(=O)N[C@@H](CO)C(=O)N[C@@H](Cc1c[nH]c3ccccc13)C(=O)N1CCC[C@H]1C(=O)N[C@@H](C(C)C)C(=O)N2,2.88,3.53,3.76,2.91,40,40,40,37.2 µg/mL,,13.2,29.6,Activity [30]: Active; Activity [31]: Active; Activity [32]: Active; Activity [33]: 50%; Activity [34]: Active
CC(C)C[C@@H]1NC(=O)CNC(=O)[C@H](CC(N)=O)NC(=O)[C@H](CCCNC(=N)N)NC(=O)[C@H]([C@@H](C)O)NC(=O)[C@@H]2CSSC[C@@H]3NC(=O)[C@H]([C@@H](C)O)NC(=O)CNC(=O)CNC(=O)[C@H](C(C)C)NC(=O)[C@@H]4CSSC[C@H](NC(=O)[C@H]([C@@H](C)O)NC(=O)[C@H](CSSC[C@H](NC(=O)[C@H](C(C)C)NC(=O)[C@@H]5CCCN5C1=O)C(=O)NCC(=O)N[C@@H](CCC(=O)O)C(=O)N[C@@H]([C@@H](C)O)C(=O)N4)NC(=O)CNC(=O)[C@@H]1CCCN1C(=O)[C@H]([C@@H](C)O)NC(=O)[C@H](CC(N)=O)NC3=O)C(=O)N[C@@H](CO)C(=O)N[C@@H](Cc1c[nH]c3ccccc13)C(=O)N1CCC[C@H]1C(=O)N[C@@H](C(C)C)C(=O)N2,5.56,6.05,7.97,7.93,,,,10.9 µM,3.21,60,60,viability at 10 µM [35]: 20%; viability at 10 µM [36]: 40%
"CC[C@H](C)[C@@H]1NC(=O)[C@H](C)NC(=O)[C@H](C)NC(=O)[C@H](CO)NC(=O)[C@H]([C@@H](C)CC)NC(=O)[C@@H]2CSSC[C@@H]3NC(=O)[C@H](C(C)C)NC(=O)[C@H](CCCCN)NC(=O)[C@H](CO)NC(=O)[C@H](CCCCN)NC(=O)[C@@H]4CSSC[C@H](NC(=O)[C@H](CO)NC(=O)[C@H](CCC(=O)O)NC(=O)CNC(=O)[C@H](CSSC[C@H](NC(=O)CNC1=O)C(=O)N[C@@H](CO)C(=O)N4)NC(=O)[C@@H]1CCCN1C(=O)[C@H]([C@@H](C)CC)NC(=O)CNC(=O)[C@H](CC(N)=O)NC(=O)[C@H](CCCNC(=N)N)NC(=O)[C@H](Cc1ccc(O)cc1)NC3=O)C(=O)N[C@@H](C(C)C)C(=O)N[C@@H](Cc1c[nH]c3ccccc13)C(=O)N[C@@H]([C@@H](C)CC)C(=O)N1CCC[C@H]1C(=O)N2 [CYCLOVIOLACIN O13] (cyclo(AAIGCSCKSKVCYRNGIPCGESCVWIPCIS); disulfide 5-19, 7-23, 12-28)",2.15,3.07,3.36,2.57,,,,,,12.5,29.7,
